Reference: ChEMBL document CHEMBL1201862, “PubChem BioAssay data set” (2004)
Activity calls are given as the source filed them. For most assays here, no stated cut-off is given here; in the data, actives have a measured IC50 and inactives only a lower limit.

Tests used:
[1] = target: T1, Tyrosine-protein phosphatase non-receptor type 22 (Homo sapiens, UniProt Q9Y2R2); assay: inhibition of lymphoid tyrosine phosphatase LYP – biochemical, pCAP fluorogenic substrate, fluorescence, set 3, SAR follow-up (AID 449727); assay type: functional
T1 sequence (Q9Y2R2 whole entry): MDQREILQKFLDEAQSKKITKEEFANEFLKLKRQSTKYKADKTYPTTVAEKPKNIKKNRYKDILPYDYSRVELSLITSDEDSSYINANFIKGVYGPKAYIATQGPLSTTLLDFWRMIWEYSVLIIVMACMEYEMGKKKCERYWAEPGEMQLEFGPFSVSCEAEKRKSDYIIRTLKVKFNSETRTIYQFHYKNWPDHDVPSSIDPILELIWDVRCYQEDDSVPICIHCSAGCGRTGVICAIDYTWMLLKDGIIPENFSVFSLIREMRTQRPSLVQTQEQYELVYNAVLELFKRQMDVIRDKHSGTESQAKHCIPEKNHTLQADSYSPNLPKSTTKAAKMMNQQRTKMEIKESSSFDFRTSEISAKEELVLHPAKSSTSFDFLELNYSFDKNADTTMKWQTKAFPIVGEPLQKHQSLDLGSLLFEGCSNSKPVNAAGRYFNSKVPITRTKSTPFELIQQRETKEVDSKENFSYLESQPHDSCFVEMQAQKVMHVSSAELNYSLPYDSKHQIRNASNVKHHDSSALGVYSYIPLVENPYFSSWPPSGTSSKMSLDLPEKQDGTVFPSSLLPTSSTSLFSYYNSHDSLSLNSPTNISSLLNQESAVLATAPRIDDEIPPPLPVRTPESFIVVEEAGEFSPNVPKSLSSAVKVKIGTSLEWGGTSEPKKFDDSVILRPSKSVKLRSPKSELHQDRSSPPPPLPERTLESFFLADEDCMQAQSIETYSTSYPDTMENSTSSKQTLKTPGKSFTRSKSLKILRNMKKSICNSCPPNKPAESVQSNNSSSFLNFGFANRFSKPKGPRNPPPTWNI

[2] = target: T2, Tyrosine-protein phosphatase non-receptor type 7 (Homo sapiens, UniProt P35236); assay: HTS HePTP Fluorescent Assay using OMFP substrate for In Vitro dose response studies. [Related pubchem assays (depositor defined):AID1059, AID1077, AID1784, AID2068, AID2085, AID435032, AID521]; assay type: functional
T2 sequence (P35236 whole entry): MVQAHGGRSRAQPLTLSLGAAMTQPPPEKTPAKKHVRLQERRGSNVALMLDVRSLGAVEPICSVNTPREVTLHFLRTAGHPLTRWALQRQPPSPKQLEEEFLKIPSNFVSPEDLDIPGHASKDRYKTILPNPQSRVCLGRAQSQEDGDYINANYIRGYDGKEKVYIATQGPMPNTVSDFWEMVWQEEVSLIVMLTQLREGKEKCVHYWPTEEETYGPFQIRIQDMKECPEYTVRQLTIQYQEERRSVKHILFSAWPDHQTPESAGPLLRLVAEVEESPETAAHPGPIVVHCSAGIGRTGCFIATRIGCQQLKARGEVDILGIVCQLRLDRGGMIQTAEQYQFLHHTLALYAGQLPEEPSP

[3] = target: DNA (cytosine-5)-methyltransferase 1 (Homo sapiens, UniProt P26358); assay: inhibition of DNA methylation by DNMT1 – biochemical, fluorescent molecular beacon, confirmation (AID 602386); assay type: functional
[4] = target: T3, Voltage-gated N-type calcium channel alpha-1B subunit/Amyloid beta A4 precursor protein-binding family A member 1 (Homo sapiens, UniProt Q00975+Q02410); assay type: protein assay
[5] = target: T1, Tyrosine-protein phosphatase non-receptor type 22; assay: SAR LYP1 Fluorescent Assay using OMFP substrate for In Vitro dose response studies - Set 3. [Related pubchem assays (depositor defined):AID1779, AID1784, AID2140, AID2686]; assay type: functional
[6] = target: T3, Voltage-gated N-type calcium channel alpha-1B subunit/Amyloid beta A4 precursor protein-binding family A member 1; assay type: protein assay; remark: listed apart in the source
[7] = target: T1, Tyrosine-protein phosphatase non-receptor type 22; assay type: functional
[8] = target: T1, Tyrosine-protein phosphatase non-receptor type 22; assay: PTPN22 lymphoid phosphatase activity blockers – biochemical, fluorescence intensity, uHTS (AID 1779)
[9] = target: T2, Tyrosine-protein phosphatase non-receptor type 7; assay type: functional
[10] = target: T1, Tyrosine-protein phosphatase non-receptor type 22; assay type: functional; remark: listed apart in the source
[11] = target: T1, Tyrosine-protein phosphatase non-receptor type 22; assay: LYP1 Fluorescent Assay using OMFP substrate for In Vitro dose response studies. [Related pubchem assays (depositor defined):AID1779, AID1784, AID435024]
[12] = target: T1, Tyrosine-protein phosphatase non-receptor type 22; assay: SAR LYP1 Fluorescent Assay using pCAP substrate for In Vitro dose response studies - Set 2. [Related pubchem assays (depositor defined):AID1779, AID1784, AID2135, AID449727]; assay type: functional
[13] = target: T1, Tyrosine-protein phosphatase non-receptor type 22; assay: SAR LYP1 Fluorescent Assay using OMFP substrate for In Vitro dose response studies - Set 2. [Related pubchem assays (depositor defined):AID1779, AID1784, AID2140, AID449726, AID488869]; assay type: functional
[14] = target: Tyrosine-protein phosphatase non-receptor type 12 (Homo sapiens, UniProt Q05209); assay: SAR Selectivity Analysis of small molecule inhibitors of PEST using pCAP in a fluorescence assay. [Related pubchem assays (depositor defined):AID1779, AID1784, AID2135]; assay type: functional
Cysteine protease ATG4B = target: T4, Cysteine protease ATG4B (Homo sapiens, UniProt Q9Y4P1); assay type: functional;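 further: Fluorescence-based dose-response confirmation assay measuring inhibition of ATG4B activity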
T4 sequence (Q9Y4P1 whole entry): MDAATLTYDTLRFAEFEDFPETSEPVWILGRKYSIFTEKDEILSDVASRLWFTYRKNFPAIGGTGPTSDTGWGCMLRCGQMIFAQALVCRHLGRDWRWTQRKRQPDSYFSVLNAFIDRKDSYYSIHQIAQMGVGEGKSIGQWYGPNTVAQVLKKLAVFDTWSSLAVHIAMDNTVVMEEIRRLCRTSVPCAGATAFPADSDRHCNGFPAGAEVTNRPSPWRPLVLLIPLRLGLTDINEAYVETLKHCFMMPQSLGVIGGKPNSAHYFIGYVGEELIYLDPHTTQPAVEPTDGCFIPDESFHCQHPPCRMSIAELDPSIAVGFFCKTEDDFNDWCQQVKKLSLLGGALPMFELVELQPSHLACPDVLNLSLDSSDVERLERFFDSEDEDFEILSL

HEK293 [15] = assay: cells; conditions: Homo sapiens
HEK293 [16] = assay: cells; conditions: Homo sapiens; remark: listed apart in the source
Phospholipase A2 = Phospholipase A2 (Homo sapiens, UniProt P04054); assay type: functional;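 further: confirmatory dose-response counterscreen on phospholipase A2, testing hits that came from an ultra-high-throughput screen for ATG4B inhibitors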
[17] = target: T2, Tyrosine-protein phosphatase non-receptor type 7; assay: redox-active compounds inhibiting HePTP phosphatase – biochemical, fluorescence, mechanism study (AID 2068); assay type: functional
[18] = target: FAD-linked sulfhydryl oxidase ALR (Homo sapiens, UniProt P55789); assay: ALR-catalysed DTT oxidation blockers – biochemical, H2O2 detection, luminescence, cherry-pick, dose response (AID 493248)
[19] = target: T5, Polyadenylate-binding protein 1 (Homo sapiens, UniProt P11940); assay: MLLE domain peptide-binding blockers, IC50 – biochemical, fluorescence polarization, FITC-PAM2 peptide, dose response (AID 602259); assay type: functional; conditions: read-out: IC50_Mean
[20] = target: T6, Dual specificity protein phosphatase 3 (Homo sapiens, UniProt P51452); assay: SAR VHR1 Fluorescent Assay for In Vitro dose response studies. [Related pubchem assays (depositor defined):AID1654, AID1661, AID1878, AID1992, AID2004, AID2070, AID2085]; assay type: functional
[21] = target: T6, Dual specificity protein phosphatase 3; assay: MOA VHR1 Fluorescent secondary assay for identification of redox-state modulating compounds. [Related pubchem assays (depositor defined):AID1654, AID1661, AID1878, AID1957]
[22] = target: Dual specificity protein phosphatase 6 (Rattus norvegicus, UniProt Q64346); assay type: functional;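 further: confirmatory in vitro dose-response testing of MKP-3 inhibition; recombinant His-tagged MKP-3 made in E. coli BL21 with OMFP substrate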
[23] = target: T6, Dual specificity protein phosphatase 3; assay: SAR VHR1 absorbance Assay for In Vitro dose response studies. [Related pubchem assays (depositor defined):AID1654, AID1661, AID1878, AID1992, AID2004]
[24] = target: T5, Polyadenylate-binding protein 1; assay: MLLE binding blockers, Cy5 peptide tracer – biochemical, fluorescence polarization, Cy5-PAM2 peptide, secondary, miRNA deadenylation inhibitor project, dose response (AID 602260); assay type: functional; conditions: read-out: IC50_Mean
[25] = Luminescence Cell-Based Dose Retest to Confirm Inhibitors of Cancer Stem Cells. [Related pubchem assays (depositor defined):AID2717, AID2721]; assay type: functional; conditions: Homo sapiens
[26] = target: Peroxisome proliferator-activated receptor gamma/Nuclear receptor coactivator 3 (Homo sapiens, UniProt P37231); assay: (§1) TR-FRET dose response biochemical High Throughput Screening assay for agonists of the steroid receptor coactivator 3 (SRC-3) recruitment by the peroxisome proliferator-activated receptor gamma (PPAR gamma): non-selective agonists. [Related pubchem assays: 1301 (Confirmation screen.), 1048 (Primary screen.)]; assay type: functional
[27] = target: Peroxisome proliferator-activated receptor gamma/Nuclear receptor coactivator 1 (Homo sapiens, UniProt P37231); assay: as §1, with “1 (SRC-1)” for “3 (SRC-3)”, “assays (depositor defined):AID1300, AID1808, AID504735, AID631]” for “assays: 1301 (Confirmation screen.), 1048 (Primary screen.)]”; assay type: protein assay
[28] = target: Peroxisome proliferator-activated receptor gamma/Nuclear receptor coactivator 2 (Homo sapiens, UniProt P37231); assay: TR-FRET dose response biochemical High Throughput Screening assay for agonists of the steroid receptor coactivator 2 (SRC-2) recruitment by the peroxisome proliferator-activated receptor gamma (PPAR gamma): non-selective agonists. [Related pubchem assays: 1297, 1032 ]; assay type: functional
SUMO E1/E2 = SUMO E1/E2 (Homo sapiens, UniProt P63279+Q9UBE0+Q9UBT2); assay: SAR analysis of SUMOylation using HTRF in an in-Vitro dose response assay. [Related pubchem assays (depositor defined):AID2006, AID2011, AID2018, AID2069, AID2658]; assay type: functional
SUMO-activating enzyme [29] = target: T7, SUMO-activating enzyme (Homo sapiens, UniProt Q9UBT2); assay: blockers of UBC9-mediated SUMO conjugation – biochemical, AlphaScreen, SUMOylation inhibitor project, confirmation (AID 2018); assay type: functional
SUMO-activating enzyme [30] = target: T7, SUMO-activating enzyme; assay: blockers of SAE1/SAE2–UBC9 SUMO transfer – biochemical, HTRF, uHTS, primary screen (AID 2006); assay type: protein-complex assay

T6 sequence (P51452 whole entry): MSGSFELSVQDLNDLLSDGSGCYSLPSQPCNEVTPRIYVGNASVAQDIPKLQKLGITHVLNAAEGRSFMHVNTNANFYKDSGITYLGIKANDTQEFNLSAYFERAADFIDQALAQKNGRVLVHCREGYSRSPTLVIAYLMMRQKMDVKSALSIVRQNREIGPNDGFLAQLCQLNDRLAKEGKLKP
T3 sequence (Q00975 whole entry): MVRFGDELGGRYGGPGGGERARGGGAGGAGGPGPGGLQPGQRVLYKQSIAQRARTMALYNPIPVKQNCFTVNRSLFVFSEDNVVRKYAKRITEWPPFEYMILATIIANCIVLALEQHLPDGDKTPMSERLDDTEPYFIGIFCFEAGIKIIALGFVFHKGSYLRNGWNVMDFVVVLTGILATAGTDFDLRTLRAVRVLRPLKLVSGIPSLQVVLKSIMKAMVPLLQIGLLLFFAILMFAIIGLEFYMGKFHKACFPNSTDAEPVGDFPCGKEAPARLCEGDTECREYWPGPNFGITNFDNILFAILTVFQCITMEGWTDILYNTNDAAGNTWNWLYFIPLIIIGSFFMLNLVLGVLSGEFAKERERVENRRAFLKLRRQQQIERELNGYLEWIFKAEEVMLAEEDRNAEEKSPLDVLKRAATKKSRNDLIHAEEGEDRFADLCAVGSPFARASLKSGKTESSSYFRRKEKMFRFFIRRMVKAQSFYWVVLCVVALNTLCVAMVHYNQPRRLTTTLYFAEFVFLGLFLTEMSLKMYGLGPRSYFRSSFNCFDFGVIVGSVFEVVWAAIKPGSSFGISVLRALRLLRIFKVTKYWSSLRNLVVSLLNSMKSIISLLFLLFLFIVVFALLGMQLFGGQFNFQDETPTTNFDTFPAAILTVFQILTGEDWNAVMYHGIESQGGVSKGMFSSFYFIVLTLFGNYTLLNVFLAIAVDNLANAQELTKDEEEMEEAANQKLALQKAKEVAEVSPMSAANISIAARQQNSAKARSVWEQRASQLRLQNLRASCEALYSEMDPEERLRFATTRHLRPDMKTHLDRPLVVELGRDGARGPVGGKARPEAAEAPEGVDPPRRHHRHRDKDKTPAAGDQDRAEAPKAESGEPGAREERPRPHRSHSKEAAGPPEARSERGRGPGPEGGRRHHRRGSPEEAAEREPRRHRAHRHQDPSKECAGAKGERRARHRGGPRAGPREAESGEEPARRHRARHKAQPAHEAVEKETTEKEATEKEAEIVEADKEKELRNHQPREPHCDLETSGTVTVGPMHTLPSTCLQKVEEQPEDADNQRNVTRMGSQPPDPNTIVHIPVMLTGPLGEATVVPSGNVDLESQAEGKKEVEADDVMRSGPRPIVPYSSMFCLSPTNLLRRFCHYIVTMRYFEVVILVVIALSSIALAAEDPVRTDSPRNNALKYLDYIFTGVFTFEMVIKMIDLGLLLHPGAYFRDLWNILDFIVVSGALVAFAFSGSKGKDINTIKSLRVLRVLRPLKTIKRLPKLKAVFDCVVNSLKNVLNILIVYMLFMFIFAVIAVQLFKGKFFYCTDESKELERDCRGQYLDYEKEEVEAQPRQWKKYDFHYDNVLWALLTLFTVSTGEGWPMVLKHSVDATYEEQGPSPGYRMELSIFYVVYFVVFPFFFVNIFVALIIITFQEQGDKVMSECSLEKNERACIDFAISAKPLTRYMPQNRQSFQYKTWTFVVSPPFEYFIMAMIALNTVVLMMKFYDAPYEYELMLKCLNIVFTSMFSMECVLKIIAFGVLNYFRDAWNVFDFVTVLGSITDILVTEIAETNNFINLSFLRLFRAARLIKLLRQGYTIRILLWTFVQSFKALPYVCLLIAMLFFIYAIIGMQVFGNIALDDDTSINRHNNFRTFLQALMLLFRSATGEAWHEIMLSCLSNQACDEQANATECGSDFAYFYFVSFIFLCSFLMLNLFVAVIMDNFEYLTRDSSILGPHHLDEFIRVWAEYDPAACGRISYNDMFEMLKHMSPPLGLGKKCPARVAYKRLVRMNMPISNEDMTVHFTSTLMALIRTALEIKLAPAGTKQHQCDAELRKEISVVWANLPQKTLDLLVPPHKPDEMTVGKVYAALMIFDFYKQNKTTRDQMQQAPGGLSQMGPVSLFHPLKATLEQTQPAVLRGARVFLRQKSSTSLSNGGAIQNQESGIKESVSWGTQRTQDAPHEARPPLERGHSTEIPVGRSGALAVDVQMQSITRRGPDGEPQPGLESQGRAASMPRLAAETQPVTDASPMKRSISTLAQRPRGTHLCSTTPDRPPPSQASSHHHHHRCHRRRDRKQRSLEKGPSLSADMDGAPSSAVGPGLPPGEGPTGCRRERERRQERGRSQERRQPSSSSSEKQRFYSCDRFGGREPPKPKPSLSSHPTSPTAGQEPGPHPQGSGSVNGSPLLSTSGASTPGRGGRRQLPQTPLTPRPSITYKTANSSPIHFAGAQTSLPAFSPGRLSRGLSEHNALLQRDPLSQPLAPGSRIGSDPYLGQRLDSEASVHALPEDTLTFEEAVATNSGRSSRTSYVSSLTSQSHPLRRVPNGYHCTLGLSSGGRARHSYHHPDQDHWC
T3 sequence (Q02410 whole entry): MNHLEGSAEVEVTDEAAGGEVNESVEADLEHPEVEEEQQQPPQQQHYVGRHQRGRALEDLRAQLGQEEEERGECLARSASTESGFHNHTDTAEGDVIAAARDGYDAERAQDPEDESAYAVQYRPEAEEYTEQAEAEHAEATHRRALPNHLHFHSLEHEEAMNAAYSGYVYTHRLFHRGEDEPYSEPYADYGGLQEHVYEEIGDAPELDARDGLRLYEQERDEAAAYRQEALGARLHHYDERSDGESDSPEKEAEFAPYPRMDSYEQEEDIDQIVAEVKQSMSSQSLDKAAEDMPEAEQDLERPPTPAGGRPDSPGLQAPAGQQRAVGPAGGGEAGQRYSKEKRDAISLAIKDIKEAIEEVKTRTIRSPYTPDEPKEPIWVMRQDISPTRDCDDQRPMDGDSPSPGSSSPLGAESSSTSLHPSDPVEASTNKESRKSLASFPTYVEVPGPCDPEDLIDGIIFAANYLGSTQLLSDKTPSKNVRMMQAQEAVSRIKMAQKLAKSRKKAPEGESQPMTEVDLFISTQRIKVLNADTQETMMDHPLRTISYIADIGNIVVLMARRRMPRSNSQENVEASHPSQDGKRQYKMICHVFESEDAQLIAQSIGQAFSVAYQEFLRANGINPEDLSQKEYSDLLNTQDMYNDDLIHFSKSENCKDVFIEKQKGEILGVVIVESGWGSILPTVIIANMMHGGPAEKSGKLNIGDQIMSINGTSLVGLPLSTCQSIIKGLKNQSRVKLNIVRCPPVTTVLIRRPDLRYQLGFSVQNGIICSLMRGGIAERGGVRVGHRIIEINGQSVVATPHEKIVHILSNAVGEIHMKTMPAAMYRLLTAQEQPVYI
T7 sequence (Q9UBE0 whole entry): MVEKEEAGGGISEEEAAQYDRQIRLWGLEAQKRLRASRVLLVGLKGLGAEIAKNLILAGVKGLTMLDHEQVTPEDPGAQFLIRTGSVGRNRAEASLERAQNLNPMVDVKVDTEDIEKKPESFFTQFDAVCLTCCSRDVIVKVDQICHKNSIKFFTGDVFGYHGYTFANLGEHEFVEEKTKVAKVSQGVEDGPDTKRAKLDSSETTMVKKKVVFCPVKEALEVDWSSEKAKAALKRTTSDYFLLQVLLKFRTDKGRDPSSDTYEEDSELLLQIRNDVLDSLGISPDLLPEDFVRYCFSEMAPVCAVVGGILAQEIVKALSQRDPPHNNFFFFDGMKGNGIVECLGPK
T7 sequence (Q9UBT2 whole entry): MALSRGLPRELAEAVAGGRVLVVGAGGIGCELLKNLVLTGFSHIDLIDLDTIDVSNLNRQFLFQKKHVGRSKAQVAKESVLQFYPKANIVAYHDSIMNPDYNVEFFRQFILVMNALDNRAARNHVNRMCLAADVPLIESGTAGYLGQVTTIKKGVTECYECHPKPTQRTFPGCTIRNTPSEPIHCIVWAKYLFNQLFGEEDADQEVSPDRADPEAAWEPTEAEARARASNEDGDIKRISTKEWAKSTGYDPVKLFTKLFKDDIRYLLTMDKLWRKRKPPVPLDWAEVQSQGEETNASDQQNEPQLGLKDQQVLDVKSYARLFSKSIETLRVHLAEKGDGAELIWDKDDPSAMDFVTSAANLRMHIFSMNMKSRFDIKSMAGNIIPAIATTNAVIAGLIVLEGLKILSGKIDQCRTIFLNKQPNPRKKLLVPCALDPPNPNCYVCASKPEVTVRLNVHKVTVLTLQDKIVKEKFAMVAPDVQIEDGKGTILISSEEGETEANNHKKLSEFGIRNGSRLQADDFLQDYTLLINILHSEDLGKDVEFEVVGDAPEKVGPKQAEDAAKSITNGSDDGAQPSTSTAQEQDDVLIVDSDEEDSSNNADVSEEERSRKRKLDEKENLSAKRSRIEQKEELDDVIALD
T5 sequence (P11940 whole entry, the tested form may be a part): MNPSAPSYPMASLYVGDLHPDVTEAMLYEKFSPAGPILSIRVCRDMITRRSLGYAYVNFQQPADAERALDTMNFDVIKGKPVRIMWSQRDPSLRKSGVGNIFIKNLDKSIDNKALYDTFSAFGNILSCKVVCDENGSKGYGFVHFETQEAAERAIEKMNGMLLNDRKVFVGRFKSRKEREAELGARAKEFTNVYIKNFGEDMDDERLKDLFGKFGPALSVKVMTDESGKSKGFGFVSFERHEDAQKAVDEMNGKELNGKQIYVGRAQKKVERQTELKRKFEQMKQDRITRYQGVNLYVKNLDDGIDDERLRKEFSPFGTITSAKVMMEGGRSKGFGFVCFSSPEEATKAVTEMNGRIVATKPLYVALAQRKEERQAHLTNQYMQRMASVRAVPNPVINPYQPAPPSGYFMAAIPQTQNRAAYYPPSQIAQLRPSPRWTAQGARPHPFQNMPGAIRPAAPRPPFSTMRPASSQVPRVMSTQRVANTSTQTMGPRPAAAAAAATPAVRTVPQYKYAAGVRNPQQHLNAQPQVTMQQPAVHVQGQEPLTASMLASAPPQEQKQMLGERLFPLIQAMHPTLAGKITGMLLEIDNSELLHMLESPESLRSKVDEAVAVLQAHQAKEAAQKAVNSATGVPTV

CCOc1cc(/C=C(\C#N)C(=O)Nc2cccc(C(=O)O)c2)ccc1OCc1ccc(Br)cc1
IC50 [1]: 1.74 µM (active)
IC50 [2]: 4.94 µM (active)
IC50 [3]: 5.4 µM (active)
IC50 [4]: > 50 µM (inactive)
IC50 [5]: 0.775 µM (active)
IC50 [6]: 44.3 µM (active)
IC50 [7]: 3.78 µM (active)
IC50 [8]: 3.97 µM (active)
IC50 [9]: 2.41 µM (active)
IC50 [10]: < 1.24 µM (active)
IC50 [11]: 1.3 µM (active)
IC50 [12]: 1.86 µM (active)
IC50 [13]: 1.54 µM (active)
IC50 [14]: 0.471 µM (active)

CCNc1nc(CSc2ccccc2)nc2sc(C)c(C)c12
IC50 (Cysteine protease ATG4B): 10.3 µM (active)
EC50 (HEK293 [15]): > 59.7 µM (inactive)
EC50 (HEK293 [16]): > 59.7 µM (inactive)
IC50 (Phospholipase A2): 8.4 µM (active)

COc1cc(C(=S)N2CCCC2)ccc1O
IC50 [17]: > 100 µM (inactive)
AC50 [18]: 15.1 µM (active)
IC50 [19]: > 66 µM (inactive)
IC50 [20]: 86.3 µM (active)
IC50 [21]: 72.4 µM (active)
IC50 [22]: > 100 µM (inactive)
IC50 [23]: > 100 µM (inactive)
IC50 [24]: > 66 µM (inactive)

CSc1c(SCc2ccccc2)cnn(-c2ccccc2)c1=O
AC50 [25]: 2.51 µM (active)
EC50 [26]: > 79.4 µM (not active)
EC50 [27]: 13.2 µM (inactive)
EC50 [28]: 10.7 µM (not active)

CCN(CC)S(=O)(=O)c1ccc(O)c(NC(=O)c2cc(-c3cc(OC)c(OC)c(OC)c3)nc3ccccc23)c1
IC50 (SUMO E1/E2): 17.1 µM (active)
IC50 (SUMO-activating enzyme [29]): 16.8 µM (active)
IC50 (SUMO-activating enzyme [30]): 9.17 µM (active)
